Data published in patent US20260237072A1, “FUNCTIONAL RESPIRATORY IMAGING ANALYSIS OF SERALUTINIB FOR THE TREATMENT OF PULMONARY ARTERIAL HYPERTENSION (PAH)” (GB002, INC., priority 2023, published 2026).
“And” between values parts separate entries of the source, which are not always exact repeats. Equal entries are not always repeated.

Key:
PAH patients [1] = assay: Clinical study: functional respiratory imaging (chest CT, automated pulmonary vascular segmentation) of pulmonary arterial blood vessel volume distribution; type: in vivo, human
Experimental: (§1) A clinical study was undertaken to examine the effect of Seralutinib on pulmonary arterial blood vessel volume distribution in PAH patients. Seralutinib was administered twice daily (BID) for 24 weeks, via dry powder inhalation, to PAH patients (WHO Group I, functional class II or III). Thin-section, volumetric non-contrast chest CTs were obtained (at baseline and week 24, minimum of 64 slices), followed by automated pulmonary vascular segmentation to evaluate the reverse remodeling potential of seralutinib.
From the scans, paired inspiratory-expiratory high-resolution non-contrast computer tomography studies were performed and the lobar tissue, airways and vasculature were reconstructed. Vasculature volumes are provided as a total blood volume (BV), and as BVX values, which divide the pulmonary blood volume depending on the size vessel in which the blood is contained, wherein:
Blood vessel volumes (BVV) of pulmonary arteries with a CSA<5 mm^2 (BV5A) and >10 mm^2 (BV10A) were calculated, and the BV5A to BV10A ratio (BV510ARATIO) was used to express relative redistribution of pulmonary arterial blood vessel volume. Linear regression was used to model the treatment effect.
(§2) Baseline and Week 24 CTs were obtained in 19 subjects (7 receiving seralutinib, 12 receiving placebo), mean age 49±12 years, 18 were female, as presented in Tables 1 and 2. All subjects were receiving two or three approved PAH-specific medications.
(§3) Case study 2 was of a person with WHO functional class II idiopathic PAH+severe rheumatoid arthritis receiving approved PAH Triple Therapy (ERA+PDE-5i+PRA).

PAH patients [2] = assay: Clinical study: change from baseline to week 24 in clinical parameters (PVR, MPAP, PAC, 6MWD, NTproBNP); type: in vivo, human; design: MPAP Change / 6MWD change / NTproBNP change: unit not given here
Experimental: as §1, §2, §3

[3] = Case Study 2, baseline to week 24, lung images
[4] = treatment effect vs placebo, week 24, linear regression
[5] = individual PAH patient, baseline to week 24, BID dry powder inhalation

In the case of `COc1ccc(-c2cncc(N[C@@H](C)c3cccc(NC(=O)c4cncc(C)c4)c3)n2)cc1OC` [Seralutinib, N-{3-[(1S)-1-{[6-(3,4-dimethoxyphenyl)pyrazin-2-yl]amino}ethyl]phenyl}-5-methylpyridine-3-carboxamide], the BV5A/BV10A ratio (PAH patients [1]; [3]) is reported as “Increase”, the “Decrease in BV10APRA” value (PAH patients [1]; [3]) is reported as 8% and the “Increase in BV5APRA” value (PAH patients [1]; [3]) is reported as 6%. The “BV5A PRA (%)*” value (PAH patients [1]; Case Study 2, week 24) was “+5.6%”, the “BV10A PRA (%)*” value (PAH patients [1]; Case Study 2, week 24) was −7.7% and the “BV510A RATIO” value (PAH patients [1]; Case Study 2, week 24) was “+2.5”. For the same compound, the “redistribution of pulmonary arterial blood vessel volume to more distal vessels” value (PAH patients [1]; subjects with PAH on dual or triple PAH therapies, seralutinib added) was “significant redistribution”, the “BV5APRA regression model effect estimate” value (PAH patients [1]; [4]) was 2.625 and the “BV5PR regression model effect estimate” value (PAH patients [1]; [4]) was 1.835. The “BV10APRA regression model effect estimate” value (PAH patients [1]; [4]) was −2.711, the “BV10PR regression model effect estimate” value (PAH patients [1]; [4]) was −2.180 and the “BV510RATIO regression model effect estimate” value (PAH patients [1]; [4]) was 0.843. For the same compound, the “BV510ARATIO regression model effect estimate” value (PAH patients [1]; treatment effect vs placebo, week 24, linear regression, 7 seralutinib, 12 placebo) was 0.845, the “least squares mean difference value of the BV510ARatio” value (PAH patients [1]; vs placebo, 95% CI 0.105, 1.585, p-value 0.028) was 0.845 and the “BV510A Ratio in the seralutinib group compared to placebo” value (PAH patients [1]; week 24, p=0.028) was “significantly higher”. The “PVR coincident with arterial volume shifts” value (PAH patients [2]; Case Study 2, baseline to week 24) was “Improvement”, the 6MWD change (PAH patients [2]; Case Study 2, week 24) was −48 and the NTproBNP change (PAH patients [2]; Case Study 2, week 24) was 41. The PVR Change (PAH patients [2]; Case Study 2, week 24, PVR baseline 408) was −159, the “MPAP Change” value (PAH patients [2]; [5]) was −4 and −3 (2×) and −8 and 3 and −2 and the “PAC Change (pulmonary arterial compliance)” value (PAH patients [2]; [5]) was 0.65 and 0.24 and 0.85 and 0.31 and 0.11 and 0.32. The “PVR Change” value (PAH patients [2]; [5]) was −159 and −11 and −52 and −235 and −139 and −171.
